Laboratory results from US6028116A, “Substituted condensation products of 1H-indenyl-hydroxyalkanes with aldehydes for neoplasia” (Cell Pathways, Inc., priority 1998, dated 2000).
Like-named read-outs stand apart in the source and are kept apart here.

How the values were obtained:
[1] = tested on: HT-29 human colon carcinoma cells; experiment: Apoptosis, morphology of apoptotic cells by fluorescent microscopy (acridine orange / ethidium bromide); assay type: cell-based
Experimental: Apoptosis was measured using an assay of cell death based on morphological characteristics of apoptotic cells (i.e., condensed chromatin). Drug preparation and cell culture conditions were the same as for the SRB assay described above, except that HT-29 human colon carcinoma cells were used. Confluent cultures were established in 12.5 cm^2 flasks by plating 0.5×10^6 cells/flask. The cultures were assayed for apoptosis by fluorescent microscopy following labeling with acridine orange and ethidium bromide. Floating and attached cells were collected by trypsinization and washed three times in PBS. One ml aliquots were centrifuged (3 g). The pellet was resuspended in 25 μl media and 1 μl of a dye mixture containing 100 μg/ml acridine orange and 100 μg/ml ethidium bromide prepared in PBS and mixed gently. Ten μl of the mixture were placed on a microscope slide and covered with a 22 mm^2 coverslip, which was examined with 40× dry objectives under epillumination by filter combination.
An observer blinded in regard to the identity of the samples scored at least 100 cells per sample. Apoptotic cells were identified by nuclear condensation of chromatin stained by the acridine orange or ethidium bromide.

[2] = tested on: SW-480 colon adenocarcinoma cells; experiment: Apoptosis, DNA fragmentation (Cell Death Detection ELISA plus); assay type: cell-based, human; conditions: for EC50: SW-480, by data analysis software or estimated from effective concentration range
Experimental: (§1) Apoptosis was also measured based on the amount of fragmented DNA contained in cell lysates. Briefly, SW-480 colon adenocarcinoma cells were plated in 96-well microtitre plates ("MTP") at a density of 10K cells/well in 180 μl and were incubated for 24 hrs. Cells were then treated with 20 μl aliquots of appropriately diluted compound, and allowed to incubate for an additional 48 hrs.
After the incubation, samples were prepared according to the following steps. The MTP was centrifuged (15 min., 1000 rpm) and the supernatant was carefully removed by fast inversion of the MTP. The cell pellets in each well were resuspended in 200 μl lysis buffer and incubated for 45 min. at room temperature to lyse the cells. The lysates were then centrifuged (15 min., 1000 rpm) and 20 μl aliquots of the supernatant (=cytoplasmicfraction) were transferred into the streptavidin-coated MTP for analysis. Care was taken not to shake the lysed pellets in the MTP (=cell nucleii containing high molecular weight, unfragmented DNA). Samples were analyzed immediately, because storage at 4° C. or -20° C. reduces the ELISA-signals.
Samples were then processed according to a DNA fragmentation assay protocol, and dose-response curves were generated based on optical density readings. Quantification of DNA was done by a commercially available photometric enzyme-immunoassay manufactured by Mannheim-Boehringer under the name "Cell Death Detection ELISA ^plus ". The assay is based on a quantitative sandwich-enzyme-immunoassay-principle using mouse monoclonal antibodies directed against DNA and histones, respectively. This allows the specific determination of mono and oligonucleosomes in the cytoplasmatic fraction of cell lysates. In brief, the assay procedure is as follows. The sample (cell-lysate, serum, culture-supematant etc.) is placed into a streptavidin-coated MTP. Subsequently, a mixture of anti-histone-biotin and anti-DNA-POD is followed by incubation for 2 hours. During the incubation period, the anti-histone antibody binds to the histone-component of the nucleosomes and simultaneously fixes the immunocomplex to the streptavidin-coated MTP via its biotinylation. Additionally, the anti-DNA-POD antibody reacts with the DNA component of the nucleosomes. After removal of unbound antibodies by washing, the amount of nucleosomes is quantified by the POD retained in the immunocomplex. POD is determined photometrically with ABTS® (2,2'-Azino-di[3-ethylbenzthiazolin-sulfonate]) as substrate.
Fold stimulation (FS=ODmax/ODveh), an indicator of apoptotic response, was determined for each compound tested. EC50 values were determined either specifically by data analysis software, or by estimates based on the effective concentration range of each compound (ECR=min. effective dose-min. dose to peak effect). These FS and EC50 values for the tested compounds are listed above in Table 3.
(§2) In addition, using the DNA fragmentation test above, dose responses for the compounds of Example 8 and 9 were obtained.
Based on the data obtained from the DNA fragmentation tests in Tables 4 and 5, fold stimulations values for those compounds are also calculated at 100 μM by dividing the optical densities obtained at 100 μM by the optical densities of the control. Based on the data in Tables 4 and 5, fold stimulation values of 3.9 and 2.1 for the compounds of Examples 8 and 9 are obtained, accordingly.

colonic polyps = conditions: cited from earlier work
[3] = tested on: human colon carcinoma cell line, SW-480; experiment: Growth inhibition, Sulforhodamine B (SRB) protein binding assay; assay type: cell-based; conditions: for inhibition at 100 µM: SW480, 144 h, SW-480, six days
Experimental: The compounds of Examples #1, #8, and #9 were assayed for their growth inhibitory activity on the human colon carcinoma cell line, SW-480 obtained from ATCC (Rockville, Md.), to ascertain the degree of growth inhibition. Growth inhibition of this cell line is indicative of a benefit on precancerous lesions and neoplasms. The cell line and growth assay employed for such experiments are well characterized, and are used to evaluate the anti-neoplastic properties of compounds. The assay is used by the United States National Cancer Institute in its screening program for new anti-cancer drugs.
Drug stock solutions were made in 100% DMSO and were then diluted with RPMI media for cell culture testing. All drug solutions were prepared fresh on the day of testing. The cultured cells were obtained at passage #99 and grown in RPMI media supplemented with 5% fetal calf serum, and 2 mM glutamine, 100 U/ml penicillin, […] streptomycin, and 0.25 μg/ml amphotericin. The cultures were maintained in a humidified atmosphere of 95% air and 5% CO2 at 37° C. The cultures were passaged at preconfluent densities using a solution of 0.05% trypsin and 0.53 mM EDTA. Cells were plated at 1000 cells/well for 96 well flat-bottom microtiter plates.
Tumor cell growth inhibition was assessed using the Sulforhodamine B (SRB) protein binding assay. […] For each plate, 6 wells were designated as no treatment controls, six wells as vehicle (0.1% DMSO) controls, and the remaining wells for drug dilutions with three wells per drug. At the end of the exposure period, the cells were fixed and stained with sulforhodamine B, a protein binding dye. The dye was then solubilized, and the optical density of the resulting solution was determined on a 96-well plate reader. The mean dye intensity of the treated wells was then divided by the mean dye intensity in the control wells (6 wells of each) to determine the effect of the drug on the cells. Dye intensity is proportional to the number of cells or amount of protein per well. The resultant "percent inhibition" value then represents the degree of growth inhibition caused by the drug.
In addition, a dose response for growth inhibition was determined for the compound of Example 9, and an IC50 value was determined. This value is equivalent to the concentration of drug needed to inhibit tumor cell growth by 50%. […] Each experiment included at least three wells per drug concentration. Concentration was plotted on a log scale on the X-axis.

[4] = biological target: T1, purified cyclooxygenase Type I (COX-I) (Ovis aries, UniProt P05979); experiment: Cyclooxygenase Type I (COX-I) inhibition; assay type: biochemical, ram; conditions: arachidonic acid 100 μM, 2.0 min at 37° C.
T1 construct: The COX-I was purified from ram seminal vesicles; from tissue; host or cells: ram seminal vesicles
T1 sequence (P05979 25-600): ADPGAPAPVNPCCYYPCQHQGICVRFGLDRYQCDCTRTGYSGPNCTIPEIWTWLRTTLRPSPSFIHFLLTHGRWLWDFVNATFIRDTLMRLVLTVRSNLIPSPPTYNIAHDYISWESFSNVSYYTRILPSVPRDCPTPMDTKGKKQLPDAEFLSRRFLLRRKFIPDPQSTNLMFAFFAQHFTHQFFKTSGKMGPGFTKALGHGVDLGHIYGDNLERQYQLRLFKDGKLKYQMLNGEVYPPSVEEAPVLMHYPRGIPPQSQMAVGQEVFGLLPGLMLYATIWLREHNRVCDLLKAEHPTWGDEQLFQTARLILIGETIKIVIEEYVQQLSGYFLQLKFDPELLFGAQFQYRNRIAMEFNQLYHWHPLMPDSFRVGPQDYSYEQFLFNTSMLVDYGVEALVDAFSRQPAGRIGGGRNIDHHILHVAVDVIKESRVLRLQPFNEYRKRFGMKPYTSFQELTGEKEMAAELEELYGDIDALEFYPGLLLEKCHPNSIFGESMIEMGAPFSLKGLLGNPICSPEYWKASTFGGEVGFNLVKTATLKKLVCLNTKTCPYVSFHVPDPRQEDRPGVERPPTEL
Experimental: COX-I catalyzes the formation of prostaglandins and thromboxane by the oxidative metabolism of arachidonic acid.
Briefly, purified COX-I was incubated with arachidonic acid (100 μM) for 2.0 min at 37° C. in the presence or absence of test compounds. The assay was terminated by the addition of TCA, and COX-I activity was determined by absorbance at 530 nm.

[5] = tested on: SW-480 colon adenocarcinoma cells; experiment: Growth (% vehicle) in dose response of the DNA fragmentation test; assay type: cell-based; conditions: Homo sapiens, SW480, 48 h
Experimental: as §1, §2

[6] = Homo sapiens, SW480, 48 h, 100 μM, OD at 100 μM divided by OD of control, read-out: fold stimulation calculated at 100 μM from Tables 4 and 5
[7] = Homo sapiens, SW480, 100 μM, FS=ODmax/ODveh, fold stimulation, SW-480, 48 hrs, read-out: DNA Fragmentation FS (100 μM)

CC1=C(CC(=O)O)c2cc(F)ccc2/C1=C\c1ccc(S(C)(=O)=O)cc1 [Exisulind, reference compound]
Morphology % Apoptotic Cells (@540 μM) ([1]; 540 μM): 48% | fold induction at 700 µM ([2]; Homo sapiens, SW480, 700 μM, FS=ODmax/ODveh, fold stimulation, SW-480, 48 hrs): 3.4 | EC50 ([2]; Homo sapiens, SW480): 425 µM

CC1=C(CC(=O)O)c2cc(F)ccc2/C1=C\c1ccc([S+](C)[O-])cc1 (stereo not drawn) [sulindac]
gastric side effects (colonic polyps; chronic administration, high cancer-risk patients): causes gastric side effects in many such patients | effect on colonic polyps (colonic polyps; patients): Polyps virtually disappear

CC1=C(CCO)c2cc(F)ccc2/C1=C\c1ccc(S(C)(=O)=O)cc1 [Example 9, (Z)-5-Fluoro-2-Methyl-1-(4-Methylsulfonylbenzylidene)-1H-3-Indenyl-(2-Hydroxy)Ethane]
inhibition at 100 µM [3]: 84% | IC50 ([3]; SW480, SW-480, obtained graphically from dose response): 29.2 µM | inhibition at 100 µM [4]: < 25% | Morphology % Apoptotic Cells 100 μM ([1]; 100 μM): 98% | Apoptosis Level (Mean OD Value ± SD) ([2]; 0.01 μM): 0.272 ± 0.033 OD | Apoptosis Level (Mean OD Value ± SD) ([2]; 0.05 μM): 0.285 ± 0.03 OD | Apoptosis Level (Mean OD Value ± SD) ([2]; 0.1 μM): 0.312 ± 0.05 OD | Apoptosis Level (Mean OD Value ± SD) ([2]; 0.5 μM): 0.258 ± 0.03 OD | Apoptosis Level (Mean OD Value ± SD) ([2]; 1 μM): 0.296 ± 0.052 OD | Apoptosis Level (Mean OD Value ± SD) ([2]; 5 μM): 0.239 ± 0.024 OD | Apoptosis Level (Mean OD Value ± SD) ([2]; 10 μM): 0.261 ± 0.022 OD | Apoptosis Level (Mean OD Value ± SD) ([2]; 50 μM): 0.259 ± 0.068 OD | Apoptosis Level (Mean OD Value ± SD) ([2]; 100 μM): 0.742 ± 0.095 OD | fold induction at 100 µM [2, 6]: 2.1 | fold induction at 100 µM [2, 7]: 6.5 | EC50 ([2]; Homo sapiens, SW480): 89.3 µM | activity at 0.01 µM [5]: 107 ± 7.4% | activity at 0.05 µM ([5]; 0.05 μM): 108 ± 9.6% | activity at 0.1 µM [5]: 111 ± 16.7% | activity at 0.5 µM ([5]; 0.5 μM): 114 ± 18.1% | activity at 1 µM [5]: 106 ± 6.3% | activity at 5 µM ([5]; 5 μM): 100 ± 8.3% | activity at 10 µM [5]: 103 ± 9.3% | activity at 50 µM ([5]; 50 μM): 35 ± 0.246% | activity at 100 µM [5]: 21 ± 0.65%

COc1cc(/C=C2/C(C)=C(CCO)c3cc(F)ccc32)cc(OC)c1OC [Example 8, (Z)-5-Fluoro-2-Methyl-1-(3,4,5-Trimethoxybenzylidene)-1H-3-Indenyl-(2-Hydroxy)Ethane]
inhibition at 100 µM [3]: 93% | Apoptosis Level (Mean OD Value ± SD) ([2]; 0.001 μM): 0.252 ± 0.017 OD | Apoptosis Level (Mean OD Value ± SD) ([2]; 0.01 μM): 0.272 ± 0.013 OD | Apoptosis Level (Mean OD Value ± SD) ([2]; 0.1 μM): 0.277 ± 0.044 OD | Apoptosis Level (Mean OD Value ± SD) ([2]; 1 μM): 0.304 ± 0.044 OD | Apoptosis Level (Mean OD Value ± SD) ([2]; 10 μM): 0.355 ± 0.049 OD | Apoptosis Level (Mean OD Value ± SD) ([2]; 100 μM): 0.974 ± 0.124 OD | Apoptosis Level (Mean OD Value ± SD) ([2]; 500 μM): 0.76 ± 0.113 OD | fold induction at 100 µM [2, 6]: 3.9 | fold induction at 100 µM [2, 7]: 5.4 | EC50 ([2]; Homo sapiens, SW480): 20 µM | activity at 0.001 µM ([5]; 0.001 μM): 101 ± 4.6% | activity at 0.01 µM [5]: 109 ± 9.2% | activity at 0.1 µM [5]: 105 ± 5.5% | activity at 1 µM [5]: 103 ± 6.6% | activity at 10 µM [5]: 24 ± 16% | activity at 100 µM [5]: 5 ± 0.6% | activity at 500 µM ([5]; 500 μM): 9 ± 3.4%

CSc1ccc(/C=C2/C(C)=C(CCO)c3cc(F)ccc32)cc1 [Example 1, (Z)-5-Fluoro-2-Methyl-1-(4-Methylthio-Benzylidene)-1H-3-Indenyl-(2-Hydroxy)Ethane]
inhibition at 100 µM [3]: 71% | inhibition at 100 µM [4]: 70% | fold induction at 100 µM [2, 7]: 4.9
